Results reported in patent publication US8445492B2, “Method for inhibiting growth of cancer cells and cell telomere and diseases of cell proliferation by using heteroannelated anthraquinone derivative compounds” (National Defense Medical Center, priority 2008, dated 2013).

Key:
Type in all cases: cell-based
[1] = system: OVCAR-3; experiment: NCI DTP in-vitro dose response, Ovarian Cancer; conditions: for GI50: read-out: GI50
[2] = system: OVCAR-4; experiment: NCI DTP in-vitro dose response, Ovarian Cancer; conditions: for GI50: read-out: GI50
[3] = system: OVCAR-5; experiment: NCI DTP in-vitro dose response, Ovarian Cancer; conditions: for GI50: read-out: GI50
[4] = system: OVCAR-8; experiment: NCI DTP in-vitro dose response, Ovarian Cancer; conditions: for GI50: read-out: GI50
[5] = system: SK-OV-3; experiment: NCI DTP in-vitro dose response, Ovarian Cancer; conditions: for GI50: read-out: GI50
[6] = system: IGROV1; experiment: NCI DTP in-vitro dose response, Ovarian Cancer
[7] = system: MCF7; experiment: NCI DTP in-vitro dose response, Breast Cancer
[8] = system: NCI/ADR-RES; experiment: NCI DTP in-vitro dose response, Breast Cancer
[9] = system: MDA-MB-231/ATCC; experiment: NCI DTP in-vitro dose response, Breast Cancer
[10] = system: HS 578T; experiment: NCI DTP in-vitro dose response, Breast Cancer
[11] = system: MDA-MB-435; experiment: NCI DTP in-vitro dose response, Breast Cancer
[12] = system: BT-549; experiment: NCI DTP in-vitro dose response, Breast Cancer
[13] = system: T-47D; experiment: NCI DTP in-vitro dose response, Breast Cancer
[14] = system: MDA-MB-468; experiment: NCI DTP in-vitro dose response, Breast Cancer

CCc1nc2ccc3c(c2[nH]1)C(=O)c1ccccc1C3=O [TABLE 4-6]
CC50 [1]: > 100 µM
TGI [1]: >1.00E−4
Percent Growth ([1]; Log10 Concentration −4.0): 8%
Percent Growth ([1]; Log10 Concentration −5.0): 57%
Percent Growth ([1]; Log10 Concentration −6.0): 93%
Percent Growth ([1]; Log10 Concentration −7.0): 106%
Percent Growth ([1]; Log10 Concentration −8.0): 100%
GI50 [1]: 14.1 µM
CC50 [2]: > 100 µM
TGI [2]: >1.00E−4
Percent Growth ([2]; Log10 Concentration −4.0): 15%
Percent Growth ([2]; Log10 Concentration −5.0): 37%
Percent Growth ([2]; Log10 Concentration −6.0): 83%
Percent Growth ([2]; Log10 Concentration −7.0): 96%
Percent Growth ([2]; Log10 Concentration −8.0): 98%
GI50 [2]: 5.18 µM
CC50 [3]: > 100 µM
TGI [3]: >1.00E−4
Percent Growth ([3]; Log10 Concentration −4.0): 45%
Percent Growth ([3]; Log10 Concentration −5.0): 85%
Percent Growth ([3]; Log10 Concentration −6.0): 94%
Percent Growth ([3]; Log10 Concentration −7.0): 91%
Percent Growth ([3]; Log10 Concentration −8.0): 88%
GI50 [3]: 75.7 µM
CC50 [4]: > 100 µM
TGI [4]: >1.00E−4
Percent Growth ([4]; Log10 Concentration −4.0): 24%
Percent Growth ([4]; Log10 Concentration −5.0): 58%
Percent Growth ([4]; Log10 Concentration −6.0): 92%
Percent Growth ([4]; Log10 Concentration −7.0): 91%
Percent Growth ([4]; Log10 Concentration −8.0): 96%
GI50 [4]: 17.7 µM
CC50 [5]: > 100 µM
TGI [5]: >1.00E−4
Percent Growth ([5]; Log10 Concentration −4.0): 14%
Percent Growth ([5]; Log10 Concentration −5.0): 12%
Percent Growth ([5]; Log10 Concentration −6.0): 76%
Percent Growth ([5]; Log10 Concentration −7.0): 92%
Percent Growth ([5]; Log10 Concentration −8.0): 95%
GI50 [5]: 2.55 µM
CC50 [6]: > 100 µM
GI50 [6]: 1.34 µM
TGI [6]: 1.69E−5
Percent Growth ([6]; Log10 Concentration −4.0): −19%
Percent Growth ([6]; Log10 Concentration −5.0): 6%
Percent Growth ([6]; Log10 Concentration −6.0): 56%
Percent Growth ([6]; Log10 Concentration −7.0): 88%
Percent Growth ([6]; Log10 Concentration −8.0): 89%

CCc1nc2ccc3c(c2[nH]1)C(=O)c1ccccc1C3=O [TABLE 4-9]
CC50 [7]: > 100 µM
TGI [7]: 8.14E−5
Percent Growth ([7]; Log10 Concentration −4.0): −4%
Percent Growth ([7]; Log10 Concentration −5.0): 37%
Percent Growth ([7]; Log10 Concentration −6.0): 54%
Percent Growth ([7]; Log10 Concentration −7.0): 76%
Percent Growth ([7]; Log10 Concentration −8.0): 85%
GI50 ([7]; read-out: GI50): 1.68 µM
CC50 [8]: > 100 µM
TGI [8]: >1.00E−4
Percent Growth ([8]; Log10 Concentration −4.0): 6%
Percent Growth ([8]; Log10 Concentration −5.0): 51%
Percent Growth ([8]; Log10 Concentration −6.0): 89%
Percent Growth ([8]; Log10 Concentration −7.0): 99%
Percent Growth ([8]; Log10 Concentration −8.0): 95%
GI50 ([8]; read-out: GI50): 10.5 µM
CC50 [9]: > 100 µM
TGI [9]: >1.00E−4
Percent Growth ([9]; Log10 Concentration −4.0): 36%
Percent Growth ([9]; Log10 Concentration −5.0): 54%
Percent Growth ([9]; Log10 Concentration −6.0): 90%
Percent Growth ([9]; Log10 Concentration −7.0): 95%
Percent Growth ([9]; Log10 Concentration −8.0): 98%
GI50 ([9]; read-out: GI50): 16.6 µM
CC50 [10]: > 100 µM
TGI [10]: 2.67E−5
Percent Growth ([10]; Log10 Concentration −4.0): −32%
Percent Growth ([10]; Log10 Concentration −5.0): 24%
Percent Growth ([10]; Log10 Concentration −6.0): 56%
Percent Growth ([10]; Log10 Concentration −7.0): 108%
Percent Growth ([10]; Log10 Concentration −8.0): 107%
GI50 ([10]; read-out: GI50): 1.56 µM
CC50 [11]: > 100 µM
TGI [11]: >1.00E−4
Percent Growth ([11]; Log10 Concentration −4.0): 37%
Percent Growth ([11]; Log10 Concentration −5.0): 66%
Percent Growth ([11]; Log10 Concentration −6.0): 92%
Percent Growth ([11]; Log10 Concentration −7.0): 91%
Percent Growth ([11]; Log10 Concentration −8.0): 97%
GI50 ([11]; read-out: GI50): 36.5 µM
CC50 [12]: > 100 µM
TGI [12]: >1.00E−4
Percent Growth ([12]; Log10 Concentration −4.0): 15%
Percent Growth ([12]; Log10 Concentration −5.0): 60%
Percent Growth ([12]; Log10 Concentration −6.0): 95%
Percent Growth ([12]; Log10 Concentration −7.0): 100%
Percent Growth ([12]; Log10 Concentration −8.0): 101%
GI50 ([12]; read-out: GI50): 16.7 µM
CC50 [13]: > 100 µM
TGI [13]: >1.00E−4
Percent Growth ([13]; Log10 Concentration −4.0): 10%
Percent Growth ([13]; Log10 Concentration −5.0): 32%
Percent Growth ([13]; Log10 Concentration −6.0): 78%
Percent Growth ([13]; Log10 Concentration −7.0): 94%
Percent Growth ([13]; Log10 Concentration −8.0): 105%
GI50 ([13]; read-out: GI50): 4 µM
CC50 [14]: > 100 µM
TGI [14]: 6.33E−5
Percent Growth ([14]; Log10 Concentration −4.0): −7%
Percent Growth ([14]; Log10 Concentration −5.0): 29%
Percent Growth ([14]; Log10 Concentration −6.0): 79%
Percent Growth ([14]; Log10 Concentration −7.0): 89%
Percent Growth ([14]; Log10 Concentration −8.0): 83%
GI50 ([14]; read-out: GI50): 3.83 µM

O=C1c2ccccc2C(=O)c2c1ccc1nccnc21 [TABLE 5-6]
CC50 [1]: > 100 µM
TGI [1]: 1.25E−5
Percent Growth ([1]; Log10 Concentration −4.0): −42%
Percent Growth ([1]; Log10 Concentration −5.0): 4%
Percent Growth ([1]; Log10 Concentration −6.0): 77%
Percent Growth ([1]; Log10 Concentration −7.0): 95%
Percent Growth ([1]; Log10 Concentration −8.0): 104%
GI50 [1]: 2.34 µM
CC50 [2]: > 100 µM
TGI [2]: >1.00E−4
Percent Growth ([2]; Log10 Concentration −4.0): 3%
Percent Growth ([2]; Log10 Concentration −5.0): 51%
Percent Growth ([2]; Log10 Concentration −6.0): 74%
Percent Growth ([2]; Log10 Concentration −7.0): 91%
Percent Growth ([2]; Log10 Concentration −8.0): 102%
GI50 [2]: 10.5 µM
CC50 [3]: > 100 µM
TGI [3]: >1.00E−4
Percent Growth ([3]; Log10 Concentration −4.0): 19%
Percent Growth ([3]; Log10 Concentration −5.0): 77%
Percent Growth ([3]; Log10 Concentration −6.0): 98%
Percent Growth ([3]; Log10 Concentration −7.0): 90%
Percent Growth ([3]; Log10 Concentration −8.0): 97%
GI50 [3]: 59.3 µM
CC50 [4]: > 100 µM
TGI [4]: >1.00E−4
Percent Growth ([4]; Log10 Concentration −4.0): 13%
Percent Growth ([4]; Log10 Concentration −5.0): 36%
Percent Growth ([4]; Log10 Concentration −6.0): 83%
Percent Growth ([4]; Log10 Concentration −7.0): 89%
Percent Growth ([4]; Log10 Concentration −8.0): 97%
GI50 [4]: 5.07 µM
CC50 [5]: > 100 µM
TGI [5]: >1.00E−4
Percent Growth ([5]; Log10 Concentration −4.0): 8%
Percent Growth ([5]; Log10 Concentration −5.0): 44%
Percent Growth ([5]; Log10 Concentration −6.0): 79%
Percent Growth ([5]; Log10 Concentration −7.0): 89%
Percent Growth ([5]; Log10 Concentration −8.0): 91%
GI50 [5]: 6.95 µM
CC50 [6]: > 100 µM
GI50 [6]: 2.55 µM
TGI [6]: 3.59E−5
Percent Growth ([6]; Log10 Concentration −4.0): −27%
Percent Growth ([6]; Log10 Concentration −5.0): 33%
Percent Growth ([6]; Log10 Concentration −6.0): 61%
Percent Growth ([6]; Log10 Concentration −7.0): 74%
Percent Growth ([6]; Log10 Concentration −8.0): 90%
